Measurements taken from ChEMBL document CHEMBL1141767, “Lignans from bark of Larix olgensis var. koreana” (J Nat Prod, 2005).
In brackets after ≈: the same amount, converted by molar mass.

What was measured:
Assay type in all cases: functional, cell-based
K562 = assay: Cytotoxicity against human K562 cells after 72 hrs by MTT assay; details: K562, 72 h
[1] = Cytotoxicity against human SGH44 cells after 72 hrs by MTT assay; details: SGH44, 72 h
HCT-8 = assay: Cytotoxicity against human HCT8 cells after 72 hrs by MTT assay; details: HCT-8, 72 h
[2] = Cytotoxicity against human PC3M cells after 72 hrs by MTT assay; details: PC-3M
A549 = assay: Cytotoxicity against human A549 cells after 72 hrs by MTT assay; details: A549, 72 h

For `COc1cc(C[C@@H]2CO[C@@H](c3ccc(O)c(OC)c3)[C@@H]2COC(=O)/C=C/c2ccc(O)cc2)ccc1O`, the IC50 (K562) was 2.9 µg/mL (≈ 5.72 µM), the IC50 [1] was 21.4 µg/mL (≈ 42.2 µM) and the IC50 (HCT-8) was 32.9 µg/mL (≈ 64.9 µM). It also gave an IC50 [2] of 28 µg/mL (≈ 55.3 µM) and an IC50 (A549) of 33.8 µg/mL (≈ 66.7 µM).
